The results in this text go back to ChEMBL document CHEMBL1126094, “Iodinated tomoxetine derivatives as selective ligands for serotonin and norepinephrine uptake sites” (J Med Chem, 1992).

The species entered for assay [1] is Rattus norvegicus. The experiment in a line: Binding affinity against DA uptake site, using [125I]beta-CIT as radioligand in rat striatal membrane. The assay is classed as functional, Striatum.
The species named for assay [2] is Rattus norvegicus. Nature of the assay: Binding affinity against NE uptake site, using [3H]nisoxetine as radioligand in rat striatal membrane. The assay is classed as functional, Striatum.
The species entered for assay [3] is Rattus norvegicus. Nature of the assay: Binding affinity against 5-HT uptake site, using [3H]citalopram as radioligand in rat cortical membrane. The assay is classed as functional.

Structures are written as SMILES. Where a name gives a salt, the structure may show the parent alone.

In the case of `CNCC[C@H](Oc1ccc(C)cc1I)c1ccccc1`, the Ki (commonly a dissociation constant, usually derived from enzyme kinetics or from competition with a known ligand) in the assay filed under Rattus norvegicus [1] worked out at 410 nM; in the assay filed under Rattus norvegicus [2] it was 154 nM; in the assay listed under Rattus norvegicus [3], 5.73 nM.
Regarding `CNCC[C@@H](Oc1cccc(I)c1)c1ccccc1`, the values for the Ki in the assay filed under Rattus norvegicus [1], in the assay filed under Rattus norvegicus [2] and in the assay listed under Rattus norvegicus [3] were 486 nM, 1.4 nM and 14.4 nM, respectively.
On the same counts, the results for `CNCC[C@H](Oc1ccc(I)cc1C)c1ccccc1` are 636 nM, 1160 nM and 13.9 nM.
With `CNCC[C@@H](Oc1ccc(I)cc1)c1ccccc1`, the Ki stood at 3.21 nM in the assay listed under Rattus norvegicus [2] and 1.27 nM in the assay filed under Rattus norvegicus [3].
On the same counts, the results for `CNCC[C@@H](Oc1ccccc1I)c1ccccc1` are 0.24 nM and 17.1 nM.
Regarding `CNCC[C@H](Oc1cccc(I)c1)c1ccccc1`, the Ki came to 208 nM in the assay filed under Rattus norvegicus [1], 1.8 nM in the assay listed under Rattus norvegicus [2] and 4 nM in the assay filed under Rattus norvegicus [3].
On the same counts, the results for `CNCC[C@@H](Oc1ccc(I)cc1C)c1ccccc1` are 845 nM, 69 nM and 0.65 nM.
For `CNCC[C@@H](Oc1ccc(C)cc1I)c1ccccc1` the same measures were 11300 nM, 3.4 nM and 5.18 nM.
For `CNCC[C@@H](Oc1ccc(I)c(C)c1)c1ccccc1` the same measures were 220 nM, 128 nM and 0.69 nM.
For `CNCC[C@H](Oc1ccc(I)c(C)c1)c1ccccc1`, the Ki in the assay listed under Rattus norvegicus [1] was 200 nM; in the assay listed under Rattus norvegicus [2], 351 nM; in the assay filed under Rattus norvegicus [3] it was 0.3 nM.
Take `CNCC[C@H](Oc1ccccc1I)c1ccccc1`: the Ki in the assay listed under Rattus norvegicus [2] amounted to 9.35 nM; in the assay filed under Rattus norvegicus [3], 13.1 nM.
With `CNCC[C@H](Oc1ccc(I)cc1)c1ccccc1`, the Ki in the assay listed under Rattus norvegicus [2] stood at 245 nM; in the assay filed under Rattus norvegicus [3], 0.8 nM.
`CNCC[C@@H](Oc1ccccc1C)c1ccccc1` [ATOMOXETINE HYDROCHLORIDE]: the affinity in the assay listed under Rattus norvegicus [3] corresponds to a Ki of 25.1 nM.
